Measured values as given in ChEMBL document CHEMBL5724914, “Linking interpersonal differences in gut microbiota composition and drug biotransformation activity” (2024).
Where a SMILES comes first, the peptide text is derived from it. [ ]: non-standard residue; d: D form. pGlu = O=C1CC[C@@H](C(=O)O)N1; Thz = O=C(O)[C@@H]1CSCN1

Legend:
[1] = (§1) The drug is tested on Z-019 corresponding to rat gut metagenome with ENA study accession number: PRJEB37062 and ENA sample accession number: ERS12561818 for biotransformation under anaerobic condition. The drug concentrations were measured over 9 timepoints collected between 0 and 24 hours of incubation by liquid-chromatography-coupled mass spectrometry (LC–MS); conditions: 2 µM
[2] = as §1, with “on Z-018” for “on Z-019”, “to pig” for “to rat”, “number: ERS12561817” for “number: ERS12561818”; conditions: 2 µM
[3] = as §1, with “on Z-016” for “on Z-019”, “to mouse” for “to rat”, “number: ERS12561815” for “number: ERS12561818”; conditions: 2 µM
[4] = as §1, with “Z-014” for “Z-019”, “ERS12561814” for “ERS12561818”; conditions: 2 µM
[5] = as §1, with “on Z-011” for “on Z-019”, “to mouse” for “to rat”, “number: ERS12561811” for “number: ERS12561818”; conditions: 2 µM
[6] = as §1, with “on Z-002” for “on Z-019”, “to rabbit” for “to rat”, “number: ERS12561802” for “number: ERS12561818”; conditions: 2 µM
[7] = as §1, with “on WLS-310” for “on Z-019”, “to human” for “to rat”, “number: ERS12561785” for “number: ERS12561818”; conditions: 2 µM
[8] = as §1, with “on WLS-220” for “on Z-019”, “to human” for “to rat”, “number: ERS12561769” for “number: ERS12561818”; conditions: 2 µM
[9] = as §1, with “on WLS-170” for “on Z-019”, “to human” for “to rat”, “number: ERS12561762” for “number: ERS12561818”; conditions: 2 µM
[10] = as §1, with “on WLS-082” for “on Z-019”, “to human” for “to rat”, “number: ERS12561751” for “number: ERS12561818”; conditions: 2 µM
[11] = as §1, with “on WLS-039” for “on Z-019”, “to human” for “to rat”, “number: ERS12561746” for “number: ERS12561818”; conditions: 2 µM
[12] = human gut metagenome, 24 h, 2 µM
[13] = human gut metagenome, 24 h, 2 µM; remark: listed apart in the source
[14] = human gut metagenome, 24 h, 2 µM; remark: listed apart in the source
[15] = human gut metagenome, 24 h, 2 µM; remark: listed apart in the source
[16] = human gut metagenome, 24 h, 2 µM; remark: listed apart in the source
[17] = human gut metagenome, 24 h, 2 µM; remark: listed apart in the source
[18] = human gut metagenome, 24 h, 2 µM; remark: listed apart in the source
[19] = human gut metagenome, 24 h, 2 µM; remark: listed apart in the source
[20] = human gut metagenome, 24 h, 2 µM; remark: listed apart in the source
Also: call rule not given here.

Compound | Bacterial Biotransformation [1] | Bacterial Biotransformation [2] | Bacterial Biotransformation [3] | Bacterial Biotransformation [4] | Bacterial Biotransformation [5] | Bacterial Biotransformation [6] | Bacterial Biotransformation [7] | Bacterial Biotransformation [8] | Bacterial Biotransformation [9] | Bacterial Biotransformation [10] | Bacterial Biotransformation [11] | Bacterial Biotransformation [12] | Bacterial Biotransformation [13] | Bacterial Biotransformation [14] | Bacterial Biotransformation [15] | Bacterial Biotransformation [16] | Bacterial Biotransformation [17] | Bacterial Biotransformation [18] | Bacterial Biotransformation [19] | Bacterial Biotransformation [20]
CCCCC(=O)N(Cc1ccc(-c2ccccc2-c2nnn[nH]2)cc1)[C@H](C(=O)O)C(C)C | Compound NOT metabolized | Compound NOT metabolized | Compound NOT metabolized | Compound NOT metabolized | Compound NOT metabolized | Compound NOT metabolized | Compound metabolized | Compound NOT metabolized | Compound metabolized | Compound metabolized | Compound metabolized | Compound metabolized | Compound metabolized | Compound metabolized | Compound metabolized | Compound metabolized | Compound metabolized | Compound metabolized | Compound metabolized | Compound NOT metabolized
CCC(COC(=O)c1cc(OC)c(OC)c(OC)c1)(c1ccccc1)N(C)C.O=C(O)/C=C\C(=O)O (stereo not drawn) | Compound NOT metabolized | Compound metabolized | Compound NOT metabolized | Compound NOT metabolized | Compound NOT metabolized | Compound NOT metabolized | Compound metabolized | Compound metabolized | Compound metabolized | Compound metabolized | Compound NOT metabolized | Compound NOT metabolized | Compound NOT metabolized | Compound NOT metabolized | Compound NOT metabolized | Compound metabolized | Compound NOT metabolized | Compound metabolized | Compound NOT metabolized | Compound NOT metabolized
COc1ccc(CCN(C)CCCC(C#N)(c2ccc(OC)c(OC)c2)C(C)C)cc1OC (stereo not drawn) | Compound NOT metabolized | Compound metabolized | Compound NOT metabolized | Compound NOT metabolized | Compound NOT metabolized | Compound metabolized | Compound metabolized | Compound metabolized | Compound metabolized | Compound metabolized | Compound metabolized | Compound metabolized | Compound NOT metabolized | Compound metabolized | Compound NOT metabolized | Compound metabolized | Compound NOT metabolized | Compound metabolized | Compound NOT metabolized | Compound NOT metabolized
C[C@@H]1C[C@H]2[C@@H]3CCC4=CC(=O)C=C[C@]4(C)[C@@]3(F)[C@@H](O)C[C@]2(C)[C@@]1(O)C(=O)CO [DEXAMETHASONE] | Compound NOT metabolized | Compound metabolized | Compound NOT metabolized | Compound NOT metabolized | Compound NOT metabolized | Compound metabolized | Compound metabolized | Compound NOT metabolized | Compound NOT metabolized |  | Compound NOT metabolized | Compound NOT metabolized | Compound NOT metabolized | Compound NOT metabolized | Compound NOT metabolized | Compound NOT metabolized | Compound NOT metabolized | Compound NOT metabolized | Compound NOT metabolized | Compound NOT metabolized
O=c1[nH]c2ccccc2n1CCCN1CCC(n2c(=O)[nH]c3cc(Cl)ccc32)CC1 [DOMPERIDONE] | Compound NOT metabolized | Compound NOT metabolized | Compound NOT metabolized | Compound NOT metabolized | Compound NOT metabolized | Compound NOT metabolized | Compound NOT metabolized | Compound NOT metabolized |  | Compound NOT metabolized | Compound NOT metabolized | Compound NOT metabolized | Compound NOT metabolized | Compound NOT metabolized | Compound NOT metabolized | Compound NOT metabolized | Compound NOT metabolized | Compound NOT metabolized |  | 
c1ccc([C@H]2CN3CCSC3=N2)cc1 [LEVAMISOLE] | Compound NOT metabolized | Compound metabolized | Compound NOT metabolized | Compound NOT metabolized | Compound NOT metabolized | Compound metabolized | Compound metabolized | Compound metabolized | Compound metabolized |  | Compound metabolized | Compound metabolized | Compound metabolized | Compound metabolized | Compound metabolized | Compound metabolized | Compound NOT metabolized | Compound metabolized | Compound metabolized | Compound metabolized
C#C[C@]1(O)CC[C@H]2[C@@H]3CCC4=CC(=O)CC[C@@H]4[C@H]3CC[C@@]21CC [LEVONORGESTREL] | Compound metabolized | Compound metabolized |  | Compound metabolized | Compound metabolized | Compound metabolized | Compound metabolized | Compound metabolized | Compound metabolized | Compound metabolized | Compound metabolized | Compound metabolized | Compound metabolized | Compound metabolized | Compound metabolized | Compound metabolized | Compound metabolized | Compound metabolized | Compound NOT metabolized | Compound metabolized
O=C1CC[C@@H](C(=O)N2CSC[C@H]2C(=O)O)N1 [PIDOTIMOD] ([pGlu]-[Thz]-OH) | Compound NOT metabolized | Compound metabolized | Compound NOT metabolized | Compound NOT metabolized | Compound NOT metabolized | Compound NOT metabolized |  | Compound NOT metabolized | Compound NOT metabolized | Compound NOT metabolized |  | Compound NOT metabolized | Compound NOT metabolized | Compound NOT metabolized | Compound NOT metabolized | Compound metabolized | Compound NOT metabolized | Compound NOT metabolized | Compound NOT metabolized | Compound NOT metabolized
COC(=O)[C@H]1[C@H]2C[C@@H]3c4[nH]c5cc(OC)ccc5c4CCN3C[C@H]2C[C@@H](OC(=O)c2cc(OC)c(OC)c(OC)c2)[C@@H]1OC [RESERPINE] | Compound NOT metabolized | Compound NOT metabolized | Compound NOT metabolized | Compound NOT metabolized | Compound NOT metabolized | Compound NOT metabolized | Compound metabolized |  |  | Compound metabolized | Compound metabolized | Compound NOT metabolized | Compound metabolized | Compound metabolized | Compound NOT metabolized | Compound metabolized | Compound metabolized |  | Compound NOT metabolized | 
